One assay concerns the target T1, soluble form of TNFα (Homo sapiens, UniProt P01375).
T1 construct: immobilised soluble form of CD40L and the soluble form of TNFα by SPR
Put plainly: SPR on Biacore 4000 against immobilised TNFα. It counts as binding. The following applies: concentration of up to 100 μM. The procedure:
(§1) In another experiment, BIO8898 was tested against the immobilised soluble form of CD40L and the soluble form of TNFα by SPR on a Biacore 4000 machine.

A further assay has as its target T2, soluble form of CD40L (Homo sapiens, UniProt P29965).
T2 sequence (P29965 113-261 limits assumed): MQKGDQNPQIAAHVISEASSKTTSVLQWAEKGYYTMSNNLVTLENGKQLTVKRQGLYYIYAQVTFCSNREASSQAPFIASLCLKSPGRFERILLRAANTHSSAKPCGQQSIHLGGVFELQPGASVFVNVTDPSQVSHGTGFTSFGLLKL
The experiment in a line: SPR on Biacore 4000 against immobilised CD40L. As to conditions: read-out: geomean IC50 for binding against CD40L. The method, then:
as §1

Entries after “also recorded” stand apart in the source; their conditions may differ.

These results are taken from patent publication US20210132079A1, “ANTIBODY” (UCB Biopharma SRL, priority 2015, published 2021).

T1 sequence (P01375 77-233 limits assumed): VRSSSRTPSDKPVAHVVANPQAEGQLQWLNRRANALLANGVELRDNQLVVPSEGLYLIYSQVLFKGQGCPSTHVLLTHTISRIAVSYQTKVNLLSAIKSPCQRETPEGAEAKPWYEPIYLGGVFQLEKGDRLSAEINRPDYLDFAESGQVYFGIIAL

As to `O=C(NCc1cccc(-c2ccccc2)c1)c1cc(-c2cc(C(=O)NC(C(=O)O)C3CCCCC3)nc(C(=O)N3CCCC3CN3CCCC3)c2)cc(C(=O)N2CCCC2CN2CCCC2)n1` (centres unmarked) [BIO8898], the “binding to TNFα” value on soluble form of TNFα is “found not to bind; also recorded: no binding was detected”. Also, on soluble form of CD40L, the IC50 was found to be 17 µM.
